Assay results taken from ChEMBL document CHEMBL5727938, “HIV protease inhibitors” (2020).

Experiment: MT-4 HIV High Resolution Antiviral Assay: Assay protocol is identical to that described for the MT-4 antiviral assay with the following changes: Each drug is run in 2 series of quadruplicates with different starting concentrations for each series and 19 1.5 fold dilutions performed across the plate. […] Data is analyzed and Hill coefficients determined in Graph Pad Prism (San Diego, Calif.).

| SMILES | EC50 [nM] |
| --- | --- |
| CC(C)(C)C[C@]1(c2ccc(-c3nncn3C(F)F)cc2F)NC(=N)N([C@H](COC(=O)C2(C(F)(F)F)CC2)c2ccc(Cl)c(-n3ncnc3C(F)F)c2)C1=O | 76.7 |
| CC(C)(C)C[C@]1(c2ccc(-c3cnn(C(F)F)c3)cc2)NC(=N)N([C@H](COC(=O)NC2(C(F)(F)F)CC2)c2ccc(-n3ncnc3C(F)F)cc2)C1=O | 134 |
| CC(C)(C)C[C@]1(c2ccc(-c3cnn(C(F)F)c3)cc2)NC(=N)N([C@H](COC(=O)NC2(C(F)(F)F)CC2)c2ccc(Cl)c(-n3ncnc3C(F)F)c2)C1=O | 28.1 |
| CC(C)(C)C[C@H]1C(=O)N([C@H](COC(=O)NC2(C(F)(F)F)CC2)c2ccc(F)c(-c3ncnn3C(F)F)c2)C(=N)N1c1ccc(-c2cnn(C(F)F)c2)cc1 | 28.1 |
| CC(C)(C)C[C@]1(c2ccc(-c3ccn(C4CC4)n3)cc2F)NC(=N)C([C@H](COC(=O)NC2(C(F)(F)F)CC2)c2ccc(Cl)c(-n3ncnc3C(F)F)c2)C1=O (stereo partly drawn) | 18.5 |
| CC(C)(C)C[C@]1(c2ccc(-c3cnccn3)cc2)NC(=N)C([C@H](COC(=O)NC2(C(F)(F)F)CC2)c2ccc(Cl)c(-c3ncn[nH]3)c2)C1=O (stereo partly drawn) | 80.4 |
| CC(C)(F)C[C@H]1C(=O)N([C@H](COC(=O)NC(C)(C)C(F)F)c2ccc(Cl)c(-c3ncnn3C(F)F)c2)C(=N)N1c1ccc(Br)cc1 | 242 |

Compounds with a lower EC50, results first:

| EC50 [nM] | SMILES |
| --- | --- |
| 16.5 | CC(C)(C)C[C@]1(c2ccc(-c3cnn(C4CC4)n3)cc2)NC(=N)N([C@H](COC(=O)NC2(C(F)(F)F)CC2)c2ccc(Cl)c(-c3ncnn3C(F)F)c2)C1=O |
| 12 | CC(C)(C)C[C@H]1C(=O)N([C@H](COC(=O)NC(C)(C)C(F)F)c2ccc(Cl)c(-c3ncnn3C(F)F)c2)C(=N)N1c1ccc(-c2ncccn2)cc1 |
| 11.5 | CC(C)(C)C[C@]1(c2ccc(-c3ccn(C4CC4)n3)cc2)NC(=N)C([C@H](COC(=O)NC2(C(F)(F)F)CC2)c2ccc(Cl)c(-n3ncnc3C(F)F)c2)C1=O (stereo partly drawn) |
| 8.79 | CC(C)(C)C[C@]1(c2ccc(-c3cnn(C(F)F)c3)c(F)c2F)NC(=N)N([C@H](COC(=O)NC2(C)CC2)c2ccc(Cl)c(-n3cncn3)c2)C1=O |
| 7.92 | CC(C)(C)C[C@]1(c2ccc(-c3cnn(C4CC4)n3)c(F)c2)NC(=N)N([C@H](COC(=O)NC2(C(F)(F)F)CC2)c2ccc(Cl)c(-c3ncnn3C(F)F)c2)C1=O |
| 6.81 | CC(C)(C)C[C@]1(c2ccc(-c3ncccn3)cc2)NC(=N)N([C@H](COC(=O)NC2(C(F)(F)F)CC2)c2ccc(Cl)c(C3=NC=NC3C(F)F)c2)C1=O (stereo partly drawn) |
